Results as given in US20120264735A1 (priority 2009, published 2012).

The molecules below were run against T1, c-Met kinase (recombinant c-Met) (Homo sapiens, UniProt P08581) (assay: In vitro kinase assay I (homogeneous time-resolved fluorescence tyrosine kinase assay)).
T1 construct: 0.27 nM recombinant c-Met
T1 sequence (P08581 25-1390): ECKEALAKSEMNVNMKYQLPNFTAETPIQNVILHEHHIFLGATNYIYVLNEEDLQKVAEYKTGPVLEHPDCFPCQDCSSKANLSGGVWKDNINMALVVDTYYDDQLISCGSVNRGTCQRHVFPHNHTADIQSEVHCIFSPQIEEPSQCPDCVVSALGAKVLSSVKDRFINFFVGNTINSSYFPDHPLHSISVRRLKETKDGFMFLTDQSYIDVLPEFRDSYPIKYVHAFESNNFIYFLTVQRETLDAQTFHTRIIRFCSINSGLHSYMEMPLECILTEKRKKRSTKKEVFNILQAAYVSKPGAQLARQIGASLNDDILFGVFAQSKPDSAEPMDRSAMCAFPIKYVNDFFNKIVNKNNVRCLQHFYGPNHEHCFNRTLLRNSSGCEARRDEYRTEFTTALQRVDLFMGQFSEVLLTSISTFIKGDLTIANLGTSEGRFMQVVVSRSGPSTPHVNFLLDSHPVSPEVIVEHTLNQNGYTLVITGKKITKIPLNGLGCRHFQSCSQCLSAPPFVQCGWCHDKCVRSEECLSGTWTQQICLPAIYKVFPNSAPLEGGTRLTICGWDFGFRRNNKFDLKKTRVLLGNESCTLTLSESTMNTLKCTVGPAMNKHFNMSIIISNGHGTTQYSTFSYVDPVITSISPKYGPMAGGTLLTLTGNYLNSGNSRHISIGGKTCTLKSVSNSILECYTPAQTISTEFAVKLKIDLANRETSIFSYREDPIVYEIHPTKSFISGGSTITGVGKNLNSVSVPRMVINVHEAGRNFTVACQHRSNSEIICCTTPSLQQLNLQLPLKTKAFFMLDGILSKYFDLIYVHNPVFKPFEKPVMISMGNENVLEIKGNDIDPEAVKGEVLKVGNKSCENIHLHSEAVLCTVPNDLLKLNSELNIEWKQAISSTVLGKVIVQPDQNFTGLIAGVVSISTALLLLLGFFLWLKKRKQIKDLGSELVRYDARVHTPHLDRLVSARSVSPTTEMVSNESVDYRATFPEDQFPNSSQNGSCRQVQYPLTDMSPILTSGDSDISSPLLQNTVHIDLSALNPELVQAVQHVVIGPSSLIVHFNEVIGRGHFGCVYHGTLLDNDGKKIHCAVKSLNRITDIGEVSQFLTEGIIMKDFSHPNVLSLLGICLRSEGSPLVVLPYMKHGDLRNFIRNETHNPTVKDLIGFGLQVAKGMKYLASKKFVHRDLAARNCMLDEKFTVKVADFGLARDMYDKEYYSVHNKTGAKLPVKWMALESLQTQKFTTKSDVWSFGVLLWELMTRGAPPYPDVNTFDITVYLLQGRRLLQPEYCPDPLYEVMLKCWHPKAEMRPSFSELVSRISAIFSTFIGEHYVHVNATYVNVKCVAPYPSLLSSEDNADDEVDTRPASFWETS
Type: biochemical
Outline: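 Biotinylated peptide (0.5 μM) phosphorylated by 0.2 nM recombinant c-Met with 50 μM MgATP, 60 min at room temperature, pH 7.4, 5% DMSO. EDTA stop; HTRF read with Eu-anti-phosphotyrosine antibody and streptavidin-APC. IC50 from 4-parameter logistic fit.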
For CCOc1cnc(-c2cccc(Cc3nn(-c4cnn(C5CN(C(=O)OC(C)(C)C)C5)c4)ccc3=O)c2)nc1 [Example 661, tert-butyl 3-(4-{3-[3-(5-ethoxypyrimidin-2-yl)benzyl]-4-oxopyridazin-1(4H)-yl}-1H-pyrazol-1-yl)acetidine-1-carboxylate], the IC50 was less than 100 nM.
CC(C)Oc1cnc(-c2cccc(Cc3nn(-c4cnn(C)c4)ccc3=O)c2)nc1 [Example 270, 3-{3-[5-(1-methylethoxy)pyrimidin-2-yl]benzyl}-1-(1-methyl-1H-pyrazol-4-yl)pyridazin-4(1H)-one] showed an IC50 of less than 100 nM.
Cn1cnc(-c2cccc(Cc3nn(-c4cnn(C)c4)ccc3=O)c2)c1 [Example 673, 3-[3-(1-methyl-1H-imidazol-4-yl)benzyl]-1-(1-methyl-1H-pyrazol-4-yl)pyridazin-4(1H)-one] was tested, and the IC50 was 100 to 1000 nM.
With COc1cnc(-c2cccc(C(C)c3nn(-c4cnn(C)c4)ccc3=O)c2)nc1 (single isomer, unassigned) [Example 203, 3-{(1S or R)-1-[3-(5-Methoxypyrimidin-2-yl)phenyl]ethyl}-1-(1-methyl-1H-pyrazol-4-yl)pyridazin-4(1H)-one] the IC50 was 100 to 1000 nM.
CCC(COC(=O)Nc1cccc(Cc2nn(-c3cc(F)cc(F)c3)ccc2=O)c1)OC (racemic) [Example 591, rac-2-methoxybutyl (3-{[1-(3,5-difluorophenyl)-4-oxo-1,4-dihydropyridazin-3-yl]methyl}phenyl)carbamate] was tested, and the IC50 was less than 100 nM.
Work on COc1cnc(-c2cccc(Cc3nn(-c4cnn(CC(C)C)c4)ccc3=O)c2)nc1 [Example 95, 3-[3-(5-methoxypyrimidin-2-yl)benzyl]-1-[1-(2-methylpropyl)-1H-pyrazol-4-yl]pyridazin-4(1H)-one] yielded an IC50 of less than 100 nM.
CCOC(=O)Nc1cccc(C(F)c2nn(-c3cnn(C)c3)ccc2=O)c1 (racemic) [Example 639, rac-Ethyl(3-{fluoro[1-(1-methyl-1H-pyrazol-4-yl)-4-oxo-1,4-dihydropyridazin-3-yl]methyl}phenyl)carbamate] gave an IC50 of less than 100 nM.
With CCOc1cnc(-c2cccc(C(O)c3nn(-c4cnn(C)c4)ccc3=O)c2)nc1 (racemic) [Example 654, rac-3-[[3-(5-Ethoxypyrimidin-2-yl)phenyl](hydroxy)methyl]-1-(1-methyl-1H-pyrazol-4-yl)pyridazin-4(1H)-one] the IC50 was 100 to 1000 nM.
With CCn1cc(-n2ccc(=O)c(C(C)c3cccc(-c4ncc(OCC5CCCO5)cn4)c3)n2)cn1 (single isomer, unassigned) [Example 298, 1-(1-ethyl-1H-pyrazol-4-yl)-3-[(1R or S)-1-{3-[5-(tetrahydrofuran-2-ylmethoxy)pyrimidin-2-yl]phenyl}ethyl]pyridazin-4(1H)-one] the IC50 was less than 100 nM.
For CCOCc1cnc(-c2cccc(Cc3nn(-c4cnn(C)c4)ccc3=O)c2)nc1 [Example 162, 3-{3-[5-(ethoxymethyl)pyrimidin-2-yl]benzyl}-1-(1-methyl-1H-pyrazol-4-yl)pyridazin-4(1H)-one], the IC50 was less than 100 nM.
In the case of Cn1cc(-n2ccc(=O)c(Cc3ccc4ncc(OCCN5CCOCC5)cc4c3)n2)cn1 [Example 60, 1-(1-methyl-1H-pyrazol-4-yl)-3-{[3-(2-morpholin-4-ylethoxy)quinolin-6-yl]methyl}pyridazin-4(1H)-one], the IC50 is reported as 100 to 1000 nM.
Molecule CCNC(=O)Nc1cccc(Cc2nn(-c3cnn(C)c3)ccc2=O)c1 [Example 488, 1-ethyl-3-(3-{[1-(1-methyl-1H-pyrazol-4-yl)-4-oxo-1,4-dihydropyridazin-3-yl]methyl}phenyl)urea] has an IC50 of less than 100 nM.
In the case of O=C1CN(CCOC(=O)Nc2cccc(Cc3nn(-c4ccc(F)c(F)c4)ccc3=O)c2)CCN1 [Example 529, 2-(3-oxopiperazin-1-yl)ethyl (3-{[1-(3,4-difluorophenyl)-4-oxo-1,4-dihydropyridazin-3-yl]methyl}phenyl)carbamate], the IC50 is reported as less than 100 nM.
In the case of CCn1cc(-n2ccc(=O)c(Cc3cccc(-c4ncc(OCC5(F)CCNCC5)cn4)c3)n2)cn1 [Example 335, 1-(1-ethyl-1H-pyrazol-4-yl)-3-(3-{5-[(4-fluoropiperidin-4-yl)methoxy]pyrimidin-2-yl}benzyl)pyridazin-4(1H)-one], the IC50 is reported as less than 100 nM.
With CCn1cc(-n2ccc(=O)c(C(C)c3cccc(-c4ncc(OC5CNC5)cn4)c3)n2)cn1 (single isomer, unassigned) [Example 340, 3-((1R or S)-1-{3-[5-(azetidin-3-yloxy)pyrimidin-2-yl]phenyl}ethyl)-1-(1-ethyl-1H-pyrazol-4-yl)pyridazin-4(1H)-one] the IC50 was less than 100 nM.
COCCOc1cnc(-c2cccc(Cc3nn(-c4cc(F)cc(C#N)c4)ccc3=O)c2)nc1 [Example 134, 3-fluoro-5-[3-{3-[5-(2-methoxyethoxy)pyrimidin-2-yl]benzyl}-4-oxopyridazin-1(4H)-yl]benzonitrile] gave an IC50 of less than 100 nM.
In the case of CN1CCN(CCCOC(=O)Nc2cccc(Cc3nn(-c4cnn(C)c4)ccc3=O)c2)CC1 [Example 536, 3-(4-methylpiperazin-1-yl)propyl-(3-{[1-(1-methyl-1H-pyrazol-4-yl)-4-oxo-1,4-dihydropyridazin-3-yl]methyl}phenyl)carbamate], the IC50 is reported as less than 100 nM.
For Cn1cc(-n2ccc(=O)c(Cc3cccc(NC(=O)OCCCCO)c3)n2)cn1 [Example 572, 4-hydroxybutyl (3-{[1-(1-methyl-1H-pyrazol-4-yl)-4-oxo-1,4-dihydropyridazin-3-yl]methyl}phenyl)carbamate], the IC50 was less than 100 nM.
For CCOc1cnc(-c2cccc(C(CC)c3nn(-c4cnn(C)c4)ccc3=O)c2)nc1 (single isomer, unassigned) [Example 206, 3-{(1R or S)-1-[3-(5-ethoxypyrimidin-2-yl)phenyl]propyl}-1-(1-methyl-1H-pyrazol-4-yl)pyridazin-4(1H)-one], the IC50 was less than 100 nM.
CN1CCN(CCCOC(=O)Nc2cccc(Cc3nn(-c4cc(F)cc(F)c4)ccc3=O)c2)CC1 [Example 518] was tested, and the IC50 was less than 100 nM.
Cn1cc(-c2cnc(-c3cccc(Cc4nn(-c5cc(F)cc(C#N)c5)ccc4=O)c3)nc2)cn1 [Example 155, 3-fluoro-5-[3-{3-[5-(1-methyl-1H-pyrazol-4-yl)pyrimidin-2-yl]benzyl}-4-oxopyridazin-1(4H)-yl]benzonitrile] gave an IC50 of less than 100 nM.
Molecule CC(c1cccc(-c2ncc(O[C@@H]3CCNC[C@H]3F)cn2)c1)c1nn(-c2cnn(C)c2)ccc1=O (single isomer, unassigned) [Example 342, 3-{(1R or S)-1-[3-(5-{[(3R or S, 4R or S)-3-fluoropiperidin-4-yl]oxy}pyrimidin-2-yl)phenyl]ethyl}-1-(1-methyl-1H-pyrazol-4-yl)pyridazin-4(1H)-one] has an IC50 of less than 100 nM.
CCCOC(=O)Nc1cccc(Cc2nn(-c3cnn(C)c3)ccc2=O)c1 [Example 52, propyl (3-{[1-(1-methyl-1H-pyrazol-4-yl)-4-oxo-1,4-dihydropyridazin-3-yl]methyl}phenyl)carbamate] gave an IC50 of less than 100 nM.
For COCCn1cc(-n2ccc(=O)c(Cc3cccc(NC(=O)OCC(C)C)c3)n2)cn1 [Example 108, 2-methylpropyl [3-({1-[1-(2-methoxyethyl)-1H-pyrazol-4-yl]-4-oxo-1,4-dihydropyridazin-3-yl}methyl)phenyl]carbamate], the IC50 was less than 100 nM.
COCCOc1cnc(-c2cccc(Cc3nn(-c4cc(F)c(F)c(F)c4)ccc3=O)c2)nc1 [Example 318, 3-{3-[5-(2-methoxyethoxy)pyrimidin-2-yl]benzyl}-1-(3,4,5-trifluorophenyl)pyridazin-4(1H)-one] showed an IC50 of less than 100 nM.
